US12606533B2, “3-phenylpropylamine derivative” (DAIICHI SANKYO COMPANY, LIMITED, priority 2023, dated 2026)
pIC50: −log10 of the molar value.

How the values were obtained:
CYP21A2 = assay: Changes in SF1 target gene expression for NCI-H295R: CYP21A2 mRNA (qPCR); type: cell-based; conditions: Homo sapiens, NCI-H295R cells, 24 hr
Procedure: (§1) NCI-H295R cells were cultured in a 5% CO2 incubator at 37° C. using DMEM/F12 medium (Thermo Fisher Scientific Inc.) containing 2.5% Nu-Serum (registered trademark) Growth Medium Supplement (Corning) and 1% Corning ITS+ Premix Universal Culture Supplement (Corning). The DMSO solution of each compound was serially diluted with DMSO using a D300e Digital Dispenser (TECAN), and the compounds were added to a 96-well plate (FALCON). NCI-H295R cells were seeded at 1×10^4 cells/50 μL/well on the 96-well plate containing the compounds added thereto, and cultured for 24 hr in a 5% CO2 incubator at 37° C. The final DMSO concentration in the medium was adjusted to 0.1% (v/v) in all cases, and the concentration range of the compounds was set to 1000 nM to 0.32 nM with a common ratio […]. After the completion of culture, the medium was discarded, 50 μL/well of chilled D-PBS (Sigma Aldrich) was added to wash the cells, and D-PBS was discarded. After washing, 25 μL/well of Cells-to-CT (registered trademark) Bulk Lysis Reagents (Thermo Fisher Scientific, Inc.) was added to the wells, the mixture was stirred for 5 min with a plate mixer, and 2.5 μL/well of the reaction quenching liquid was added to prepare cell lysate. The cell lysate was dispensed into a 96-well plate (Corning) at 10 μL/well, and 40 μL/well of Cells-to-CT Bulk RT Reagents (Thermo Fisher Scientific, Inc.) was added. A reverse transcription reaction was performed at 37° C. for 50 min using a thermal cycler, and the reverse transcriptase was inactivated by heating at 95° C. for 5 min, and then stored at 10° C. PrimeTime (registered trademark) Gene Expression Master Mix (Integrated DNA Technologies), the target genes CYP11A1, CYP17A1, CYP21A2, or STAR, and the control gene ACTB PrimeTime (registered trademark) qPCR Probe Assays (Integrated DNA Technologies), and Nuclease free water were mixed at a ratio of 20:1:1:10 to prepare a PrimerProbe mix. The prepared PrimerProbe mix was added to a 384-well plate at 8 μL/well, and the cDNA obtained by reverse transcription was added at 2 μL/well. Real-Time PCR was performed under fast cycling conditions (95° C. for 3 min, followed by 40 cycles of 95° C. for 5 seconds and 62° C. for 30 seconds) to measure the fluorescent signal. The obtained data was analyzed using GraphPad Prism9 (GraphPad Software Inc.) to calculate the concentration (IC50 value) that reduces the mRNA expression level by 50%. The IC50 values (unit: nM) for CYP11A1, CYP17A1, CYP21A2, and STAR, of the compounds corresponding to each Example number are shown in Table 94.

CYP17A1 = assay: Changes in SF1 target gene expression for NCI-H295R: CYP17A1 mRNA (qPCR); type: cell-based; conditions: Homo sapiens, NCI-H295R cells, 24 hr
Procedure: as §1

STAR = assay: Changes in SF1 target gene expression for NCI-H295R: STAR mRNA (qPCR); type: cell-based; conditions: Homo sapiens, NCI-H295R cells, 24 hr
Procedure: as §1

CYP11A1 = assay: Changes in SF1 target gene expression for NCI-H295R: CYP11A1 mRNA (qPCR); type: cell-based; conditions: Homo sapiens, NCI-H295R cells, 24 hr
Procedure: as §1

SF1-LBD = SF1-LBD (Homo sapiens, UniProt Q13285); assay: Inhibitory activity against binding of DAX1 to SF1-LBD (AlphaLISA); conditions: inhibition of binding of DAX1 peptide to His-SF1-LBD, read-out: cell-free SF1 IC50
Chain of SF1-LBD (Q13285 222-459 limits assumed): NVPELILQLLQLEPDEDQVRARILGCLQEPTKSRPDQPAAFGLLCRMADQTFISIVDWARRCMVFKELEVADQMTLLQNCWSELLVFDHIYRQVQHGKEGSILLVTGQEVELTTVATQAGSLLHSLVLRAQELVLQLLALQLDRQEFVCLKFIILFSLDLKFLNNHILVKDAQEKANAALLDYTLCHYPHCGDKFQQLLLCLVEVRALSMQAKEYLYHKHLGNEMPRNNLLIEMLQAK
Procedure: The binding activity of each compound to the SF-1 ligand binding domain (LBD) was evaluated using the binding inhibitory activity of each compound against binding of DAX1 to SF1-LBD as an index. 100 nM His-SF1-LBD, 2 nM Biotin-DAX1 peptide (Biotin-[…]-NH2) and each compound (8-point i1 dilution series with common ratio 2 from final concentration 2 μM) were mixed in assay buffer [25 mM HEPES (pH 7.5), 100 mM NaCl, 0.1% BSA, 0.01% CHAPS, 1 mM DTT] and reacted at room temperature for 30 min. Anti-6×His AlphaLISA Acceptor beads and Streptavidin-coated AlphaScreen Donor beads were mixed to a final concentrations of 5 μg/ml and 10 μg/ml, respectively, and reacted in the dark at room temperature for 60 min. AlphaLISA signals were detected using a multimode plate reader (EnVision Xcite, PerkinElmer). The binding rate of DAX1 peptide to SF1 was calculated from the luminescence amount (C) of the compound-free group and the luminescence amount (T) of the compound-added group, based on the following formula.
The DAX1 peptide binding rate at each concentration was analyzed using GraphPad Prism6 (GraphPad Software Inc.) to calculate the concentration (IC50 value) of each compound that inhibits 50% of the binding of DAX1 to SF1-LBD.

Row | pIC50 (CYP21A2) | pIC50 (CYP17A1) | pIC50 (STAR) | pIC50 (CYP11A1) | pIC50 (SF1-LBD) | SMILES
1 | 7.72 | 6.72 | 7.36 | 8.07 | 7.46 | COc1ccc(C2(CCN(Cc3ccc(C(=O)c4ccc(CCC(=O)O)cc4)c(C)c3)C(=O)C(C)(C)C(F)(F)F)CCOC(C)(C)C2)cc1 (centres unmarked) [Example Q4, 3-[4-(4-{[{2-[4-(4-Methoxyphenyl)-2,2-dimethyltetrahydro-2H-pyran-4-yl]ethyl}(3,3,3-trifluoro-2,2-dimethylpropanoyl)amino]methyl}-2-methylbenzoyl)phenyl]propanoic acid]
2 | 7.28 | 6.93 | 7.26 | 7.54 | 7.33 | COc1ccc(C2(CCN(Cc3ccc(O[C@H]4CC[C@H](C(=O)O)CC4)cc3)c3ccccn3)CCOC(C)(C)C2)cc1 (stereo partly drawn) [Example I2, trans-4-(4-{[{2-[4-(4-Methoxyphenyl)-2,2-dimethyltetrahydro-2H-pyran-4-yl]ethyl}(pyridin-2-yl)amino]methyl}phenoxy)cyclohexanecarboxylic acid]
3 | 8.66 | 7.92 | 8.49 | 8.92 | 7.66 | COc1ccc([C@]2(CCN(Cc3ccc(O[C@H]4CC[C@H](CC(=O)O)CC4)nc3)CC(C)(C)C(F)(F)F)CCOC(C)(C)C2)cc1 [Example S4, {Trans-4-[(5-{[{2-[(4R)-4-(4-methoxyphenyl)-2,2-dimethyltetrahydro-2H-pyran-4-yl]ethyl}(3,3,3-trifluoro-2,2-dimethylpropyl)amino]methyl}pyridin-2-yl)oxy]cyclohexyl)acetic acid]
4 | 7.38 | 7.14 | 7.46 | 7.49 | 7.27 | CC1(C)CC(CCN(Cc2ccc(O[C@H]3CC[C@H](C(=O)O)CC3)cc2)C(=O)C(C)(C)C)(c2ccc(N3CCCC3)cc2)CCO1 (stereo partly drawn) [Example G3, Trans-4-(4-{[(2,2-dimethylpropanoyl) (2-{2,2-dimethyl-4-[4-(pyrrolidin-1-yl)phenyl]tetrahydro-2H-pyran-4-yl}ethyl)amino]methyl}phenoxy)cyclohexanecarboxylic acid]
5 | 8.09 | 7.15 | 7.85 | 8.39 | 7.41 | COc1ccc(C2(CCN(Cc3ccc(Oc4ccc(CC(C)(C)C(=O)O)cc4)cc3)C(=O)C(C)(C)C)CCOC(C)(C)C2)cc1 (centres unmarked) [Example J4, 3-[4-(4-{[(2,2-Dimethylpropanoyl){2-[4-(4-methoxyphenyl)-2,2-dimethyltetrahydro-2H-pyran-4-yl]ethyl}amino]methyl}phenoxy)phenyl]-2,2-dimethylpropanoic acid]
6 | 8.62 | 7.62 | 8.39 | 8.92 | 7.59 | COc1ccc([C@]2(CCN(Cc3ccc(O[C@H]4CC[C@H](CC(=O)O)CC4)cc3)CC(C)(C)C(F)(F)F)CCOC(C)(C)C2)cc1 [Example T2, [Trans-4-(4-{[{2-[(4R)-4-(4-methoxyphenyl)-2,2-dimethyltetrahydro-2H-pyran-4-yl]ethyl}(3,3,3-trifluoro-2,2-dimethylpropyl)amino]methyl}phenoxy)cyclohexyl]acetic acid]
7 | 6.85 | 6.55 | 6.80 | 6.99 | 7.72 | CC1(C)CC(CCN(Cc2ccc(O[C@H]3CC[C@H](C(=O)O)CC3)cc2)C(=O)C(C)(C)C)(c2ccc(Cl)cc2)CCO1 (stereo partly drawn) [Example A6, Trans-4-(4-{[{2-[4-(4-chlorophenyl)-2,2-dimethyltetrahydro-2H-pyran-4-yl]ethyl)(2,2-dimethylpropanoyl)amino]methyl}phenoxy)cyclohexanecarboxylic acid]
8 | 7.34 | 6.62 | 7.08 | 7.77 | 7.49 | CNc1ccc(C2(CCN(Cc3ccc(O[C@H]4CC[C@H](C(=O)O)CC4)cc3)C(=O)C(C)(C)C)CCOC(C)(C)C2)cc1 (stereo partly drawn) [Example L2, Trans-4-(4-{[(2-{2,2-dimethyl-4-[4-(methylamino)phenyl]tetrahydro-2H-pyran-4-yl}ethyl) (2,2-dimethylpropanoyl)amino]methyl}phenoxy)cyclohexanecarboxylic acid]
9 | 7.55 | 6.85 | 7.33 | 7.92 | 7.54 | COc1ccc(C2(CCN(CCC(F)(F)F)Cc3ccc(O[C@H]4CC[C@H](CC(=O)O)CC4)cc3)CCOC(C)(C)C2)cc1 (stereo partly drawn) [Example K5, [Trans-4-(4-{[{2-[4-(4-methoxyphenyl)-2,2-dimethyltetrahydro-2H-pyran-4-yl]ethyl}(3,3,3-trifluoropropyl)amino]methyl}phenoxy)cyclohexyl]acetic acid]
10 | 7.77 | 7.25 | 7.62 | 8.00 | 7.70 | CC1(C)CC(CCN(Cc2ccc(O[C@H]3CC[C@H](C(=O)O)CC3)cc2)C(=O)C(C)(C)C)(c2ccc(OC(F)(F)F)cc2)CCO1 (stereo partly drawn) [Example B5, Trans-4-(4-{[(2,2-dimethylpropanoyl) (2-{2,2-dimethyl-4-[4-(trifluoromethoxy)phenyl]tetrahydro-2H-pyran-4-yl}ethyl)amino]methyl}phenoxy)cyclohexanecarboxylic acid]
